Marks after values point to notes of the source that are not given here. Each block holds one molecule with its values, some of them ahead of it. Square brackets hold non-standard residues; d marks the D form. Peptide text beside a SMILES is read from it. * marks the point of attachment. Phe(4-Cl) = N[C@@H](Cc1ccc(Cl)cc1)C(=O)O; hArg = N=C(N)NCCCC[C@H](N)C(=O)O; Nle = CCCC[C@H](N)C(=O)O; Abu = CC[C@H](N)C(=O)O; PhAc = O=C(Cc1ccccc1)*
Columns and labels:
[1] = system: GH-RH receptor isoforms on membrane fractions of human PC-3 prostate tumors; assay type: binding; settings: general statement
In short: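 Competitive displacement of [^125I]JV-1-42 from crude membranes of human PC-3 prostate tumours grown as nude-mouse xenografts, with unlabelled peptides at 10^−12 to 10^−6 M. Bound radioactivity in the centrifuged pellet gamma-counted; Ki from Munson–Rodbard analysis. Relative affinity = Ki of reference peptide (JV-1-36 or JV-1-38) / Ki of test antagonist.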

[2] = system: PC-3 human prostate cancer xenografts; assay: PC-3 xenografts in nude mice, Experiment 1: tumor growth; assay type: in vivo
Protocol: (§1) Male nude mice were implanted s.c. with 3 mm^3 pieces of PC-3 human hormone-independent prostate cancer tissue on both flanks. When tumors reached a volume of approx. 50 mm^3, the mice were divided into 5 experimental groups with 7 to 8 animals in each group and received single daily injections for 28 days as follows: 1. Control (vehicle solution); 2. JV-1-38 (10 μg/day s.c.); 3 Peptide 31 (10 μg/day s.c.); 4. Peptide 67 (10 μg/day s.c.); 5. Peptide 62 (10 μg/day s.c.). Tumor volumes were measured twice a week. The experiment was ended on day 29 by sacrificing the mice under Isoflurane anesthesia. Resulting tumors were cleaned, weighed, and snap-frozen until further analyses. Trunk blood was collected from the abdominal aorta and serum was separated for RIA measurement of IGF-I. Statistical analyses of the measurement results were done by two-tailed t-test; data are presented as the means±S.E.

[3] = system: hGH-RH(1-29)NH2 induced GH release; assay: Inhibition of GH release in superfused rat pituitary system; assay type: cell-based
In short: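 GH output was quantified by double-antibody RIA in superfusates of rat pituitary cells. Peptides were applied for 9 min at various concentrations before a 3-min 1 nM hGH-RH(1-29)NH2 pulse, with further pulses 30–120 min later; net integral responses given as percent of the original response.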

IGF-I [4] = assay: PC-3 xenografts, Experiment 1: serum IGF-I (RIA); assay type: in vivo, nude mice; settings: 10 μg/day s.c., 28 days
Description: (§2) For the measurement of GH and IGF-I levels in the serum, as well as IGF-I and IGF-II concentrations in the cytosol fraction of tumors, blood samples and tumor samples were collected and processed as described (Braczkowski R, Schally A V, Plonowski A, Varga J L, Groot K, Krupa M, Armatis P, Cancer 95: 1735-1745, 2002), hereby incorporated by reference. Briefly, blood samples are centrifuged to separate the serum, tumors are homogenized and centrifuged to separate the cytosol fraction. Serum GH is then measured by the double-antibody RIA method. Before measurement by RIA, IGF-I and IGF-II are extracted from serum and cytosol fractions using an acid-ethanol cryoprecipitation method that eliminates most of the IGF binding proteins, which can interfere with the RIA. IGF-I concentration is measured by RIA using IGF-I as a standard and goat anti-IGF-I antibody (both from DSL Inc., Webster, Tex.). IGF-II concentration is measured by RIA using human recombinant IGF-II (Bachem) as a standard and anti-IGF-II monoclonal antibody (Amano International Enzyme, Troy, Va.).
as §1

[5] = system: PC-3 human prostate cancer xenografts; assay: PC-3 xenografts in nude mice, Experiment 2: tumor growth; assay type: in vivo; settings: for Tumor volume (mm^3) Initial: 5 μg/day groups, at start of treatment; for Tumor volume (mm^3) Final / Tumor volume doubling time / Tumor weight / Tumor volume Final (% inhibition) / Tumor weight (% inhibition): 5 μg/day s.c., 28 days; for Tumor volume Final (% inhibition) / Tumor weight (% inhibition): vs control
Protocol: as §1
(§3) Experiment 2 was similar to Experiment 1, with the difference that Experiment 2 was started when PC-3 tumors had grown to approximately 30 mm^3 in volume. At this time, the animals were divided into 8 experimental groups with 8 animals in each group, and received single daily injections for 28 days as follows. 1. Control (vehicle solution); 2. JV-1-38 (10 μg/day s.c.); 3. Peptide 46 (5 μg/day: s.c.); 4. Peptide 77 (5 μg/day s.c); 5. Peptide 76 (5 μg/day s.c.); 6. Peptide 70 (5 μg/day s.c.); 7 Peptide 79 (5 μg/day s.c.); 8. Peptide 80 (5 μg/day s.c.). Further details of Experiment 2 are the same as for Experiment 1.

IGF-I [6] = assay: PC-3 xenografts, Experiment 2: serum IGF-I (RIA); assay type: in vivo, nude mice; settings: 5 μg/day s.c., 28 days; for Serum IGF-I (% inhibition): vs control
Description: as §2, §1, §3

[7] = system: H-69 human SCLC xenografts; assay: H-69 human SCLC xenografts in nude mice: tumor growth; assay type: in vivo
Protocol: Male nude mice were implanted s.c. with 3 mm^3 pieces of H-69 human SCLC tissue. When tumors reached a volume of approx. 80 mm^3 the mice were divided into 4 experimental groups of 7-8 animals each and received the following treatment for 4 weeks: group I (control), vehicle solution; group 2, Peptide 67 (10 μg/day s.c.); group 3, Peptide 31 (10 μg/day s.c.); group 4, Peptide 72 (10 μg/day s.c.). Tumor volumes were recorded twice a week. At the end of treatment, mice were anesthetized with isoflurane, killed by decapitation, and tumors were excised and weighed. Data are presented as means±S.E. Data were evaluated by one way ANOVA and the Student-Newman-Keuls test.

[8] = 10 μg/day s.c., 28 days, vs control

Molecule: CCCC[C@H](NC(=O)[C@@H](NC(=O)[C@H](CC(=O)O)NC(=O)[C@H](CCC(N)=O)NC(=O)[C@H](CC(C)C)NC(=O)[C@H](CC(C)C)NC(=O)[C@H](CCCCN)NC(=O)[C@H](CCCNC(=N)N)NC(=O)[C@H](C)NC(=O)[C@H](CO)NC(=O)[C@H](CC(C)C)NC(=O)[C@H](CCC(N)=O)NC(=O)[C@H](CC)NC(=O)[C@H](CC(C)C)NC(=O)[C@@H](NC(=O)[C@H](CCCCN)NC(=O)[C@H](Cc1c[nH]cn1)NC(=O)[C@H](Cc1ccc(OC)cc1)NC(=O)[C@H](CCCCNC(=N)N)NC(=O)[C@H](CC(N)=O)NC(=O)[C@@H](NC(=O)[C@H](Cc1ccc(Cl)cc1)NC(=O)[C@@H](NC(=O)[C@H](C)NC(=O)[C@H](CC(=O)O)NC(=O)[C@@H](CCCNC(=N)N)NC(=O)[C@H](Cc1ccc(O)cc1)NC(=O)Cc1ccccc1)[C@@H](C)CC)[C@@H](C)O)C(C)C)[C@@H](C)CC)C(=O)N[C@H](CCCNC(=N)N)C(=O)N[C@@H](CCCCNC(=N)N)C(N)=O [Peptide 62, [PhAc-Tyr^1, D-Arg^2, Phe(pCl)^6, Har^9, Tyr(Me)^10, His^11, Abu^15, Nle^27, D-Arg^28, Har^29]hGH-RH(1-29)NH2] (PhAc-Y[dR]DAI[Phe(4-Cl)]TN[hArg]Y(Me)HKVL[Abu]QLSARKLLQDI[Nle][dR][hArg]-NH2)
binding affinities to the tumoral receptors for GH-RH (in words) [1]: extremely high binding affinities
Tumor volume (mm^3) Final ([2]; 10 μg/day s.c., 28 days): 215 ± 50.4 mm^3
Tumor volume doubling time ([2]; 10 μg/day s.c., 28 days): 18.4 ± 4.96 days
Tumor volume Final (% inhibition) [2, 8]: (57%)
Tumor weight (% inhibition) [2, 8]: (47%)
inhibitory effect on the growth of PC-3 tumors (in words) ([2]; 10 μg/day s.c., compared with JV-1-38): stronger inhibitory effect on the growth of PC-3 tumors than the reference peptide JV-1-38
Tumor volume (mm^3) Initial ([2]; at start of treatment): 56.1 ± 18.2 mm^3
GH response (% of control) 0 min ([3]; antagonist 30 nM, 1 nM hGH-RH(1-29)NH2 at 0 min): 20 % of control
GH response (% of control) 30 min ([3]; antagonist 30 nM, 1 nM hGH-RH(1-29)NH2 at 30 min): 16 % of control
GH response (% of control) 60 min ([3]; antagonist 30 nM, 1 nM hGH-RH(1-29)NH2 at 60 min): 14 % of control
GH response (% of control) 90 min ([3]; antagonist 30 nM, 1 nM hGH-RH(1-29)NH2 at 90 min): 21 % of control
GH response (% of control) 120 min ([3]; antagonist 30 nM, 1 nM hGH-RH(1-29)NH2 at 120 min): 21 % of control
endocrine antagonistic potency: inhibition of the GH release stimulated by hGH-RH(1-29)NH2 (in words) ([3]; general statement, in vitro and in vivo): high endocrine antagonistic potencies
Serum IGF-I (IGF-I [4]): 141 ± 8.86 ng/mL
Serum IGF-I (% inhibition) (IGF-I [4]; vs control): (5%)

Molecule: [CH3(CH2)6CO-Tyr^1, D-Arg^2, Phe(pCl)^6, Amp^9, Tyr(Me)^10, Abu^15, Nle^27, D-Arg^28, Har^29]hGH-RH(1-29)NH2 [Peptide 70]
binding affinities to the tumoral receptors for GH-RH (in words) [1]: extremely high binding affinities
Tumor volume (mm^3) Initial [5]: 26.5 ± 3.7 mm^3
Tumor volume (mm^3) Final [5]: 199 ± 40.4*# mm^3
Tumor volume doubling time [5]: 12.6 ± 2.5 days
Tumor weight [5]: 119 ± 25.3 mg
Tumor volume Final (% inhibition) [5]: (43%)
Tumor weight (% inhibition) [5]: (58%)
Serum IGF-I (IGF-I [6]): 175 ± 12.9 ng/mL
Serum IGF-I (% inhibition) (IGF-I [6]): 33%

Molecule: [CH3(CH2)6CO-Tyr^1, D-Arg^2, Phe(pCl)^6, Cit^8, His^9, Tyr(Et)^10, His^11, Abu^15, Nle^27, D-Arg^28, Har^29]hGH-RH(1-29)NH2 [Peptide 79]
binding affinities to the tumoral receptors for GH-RH (in words) [1]: extremely high binding affinities
Tumor volume (mm^3) Initial [5]: 29.1 ± 4.3 mm^3
Tumor volume (mm^3) Final [5]: 139 ± 49.4*# mm^3
Tumor volume doubling time [5]: 13.6 ± 1.8 days
Tumor weight [5]: 153 ± 54.5 mg
Tumor volume Final (% inhibition) [5]: (60%)
Tumor weight (% inhibition) [5]: (46%)
Serum IGF-I (IGF-I [6]): 181 ± 19.8 ng/mL
Serum IGF-I (% inhibition) (IGF-I [6]): 31%

Now from value to molecule, other results behind:

binding affinities to the tumoral receptors for GH-RH (in words) [1]: extremely high binding affinities
Molecule: [CH3(CH2)6CO-Tyr^1, D-Arg^2, Phe(pCl)^6, Cit^8, Amp^9, Tyr(Me)^10, His^11, Abu^15, Nle^27, D-Arg^28, Har^29]hGH-RH(1-29)NH2 [Peptide 76]
Tumor volume (mm^3) Initial [5]: 26.8 ± 3.4 mm^3
Tumor volume (mm^3) Final [5]: 232 ± 30.8 mm^3
Tumor volume doubling time [5]: 9.4 ± 0.6 days
Tumor weight [5]: 226 ± 48.3 mg
Tumor volume Final (% inhibition) [5]: (34%)
Tumor weight (% inhibition) [5]: (20%)
Serum IGF-I (IGF-I [6]): 260 ± 29.7 ng/mL
Serum IGF-I (% inhibition) (IGF-I [6]): 1%

binding affinities to the tumoral receptors for GH-RH (in words) [1]: extremely high binding affinities
Molecule: [HOOC(CH2)12CO-Tyr^1, D-Arg^2, Phe(pCl)^6, Amp^9, Tyr(Me)^10, Abu^15, Nle^27, D-Arg^28, Har^29]hGH-RH(1-29)NH2 [Peptide 72]
antiproliferative effect on H-69 tumors (in words) ([7]; 10 μg/day, single daily injections): strongest antiproliferative effect
Tumor volume (mm^3) Final ([7]; H-69, 10 μg/day s.c., 4 weeks): 308 ± 23* mm^3
Tumor volume Final (% inhibition) ([7]; H-69, 10 μg/day s.c., 4 weeks, vs control): (90%)
Tumor volume (mm^3) Initial ([7]; H-69, at start of treatment): 81 ± 9 mm^3

binding affinities to the tumoral receptors for GH-RH (in words) [1]: extremely high binding affinities
Molecule: [HOOC(CH2)12CO-Tyr^1, D-Arg^2, Phe(pCl)^6, Cit^8, Amp^9, Tyr(Me)^10, His^11, Abu^15, Nle^27, D-Arg^28, Har^29]hGH-RH(1-29)NH2 [Peptide 77]
Tumor volume (mm^3) Initial [5]: 27.2 ± 3.2 mm^3
Tumor volume (mm^3) Final [5]: 192 ± 44.1 mm^3
Tumor volume doubling time [5]: 10.7 ± 0.8 days
Tumor weight [5]: 138 ± 34.3 mg
Tumor volume Final (% inhibition) [5]: (45%)
Tumor weight (% inhibition) [5]: (51%)
Serum IGF-I (IGF-I [6]): 276 ± 16.8 ng/mL
Serum IGF-I (% inhibition) (IGF-I [6]): 0%

Reference: patent publication US7452865B2, “Antagonistic analogs of GH RH (2003)” (The Administrare's of the Tulane Educational Fund, priority 2004, dated 2008)
